Results taken from ChEMBL document CHEMBL1201862, “PubChem BioAssay data set” (2004).
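Tested at 5 concentrations; 48 h exposure; 96-well plates; endpoints linearly interpolated, else capped at highest concentration. Here, GI50 denotes the concentration required for 50% inhibition of growth.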 Active and inactive are the calls of the source. No stated cut-off is given here; in the data, active = GI50 up to about 1.1 µM and inactive = higher.

Key:
Test in all cases: growth of human tumour cells (NCI), 48 h
786-0 = tested on: 786-0
A498 = tested on: A498
A549 = tested on: A549
ACHN = tested on: ACHN
CAKI-1 = tested on: CAKI-1
CCRF-CEM = tested on: CCRF-CEM
COLO 205 = tested on: COLO 205
DLD-1 = tested on: DLD-1
DMS-114 = tested on: DMS-114
DMS-273 = tested on: DMS-273
EKVX = tested on: EKVX
HCC 2998 = tested on: HCC 2998
HCT-116 = tested on: HCT-116
HCT-15 = tested on: HCT-15
HL-60 = tested on: HL-60
HOP-18 = tested on: HOP-18
HOP-92 = tested on: HOP-92
HT-29 = tested on: HT-29
IGROV-1 = tested on: IGROV-1
K562 = tested on: K562
KM12 = tested on: KM12
LOX IMVI = tested on: LOX IMVI
LXFL 529 = tested on: LXFL 529
M14 = tested on: M14
M19-MEL = tested on: M19-MEL
MOLT-4 = tested on: MOLT-4
Malme-3M = tested on: Malme-3M
NCI-H226 = tested on: NCI-H226
NCI-H23 = tested on: NCI-H23
NCI-H460 = tested on: NCI-H460
NCI-H522 = tested on: NCI-H522
OVCAR-3 = tested on: OVCAR-3
OVCAR-8 = tested on: OVCAR-8
RPMI-8226 = tested on: RPMI-8226
RXF 393 = tested on: RXF 393
SF-295 = tested on: SF-295
SF-539 = tested on: SF-539
SK-MEL-28 = tested on: SK-MEL-28
SK-MEL-5 = tested on: SK-MEL-5
SK-OV-3 = tested on: SK-OV-3
SN12C = tested on: SN12C
SNB-75 = tested on: SNB-75
SNB-78 = tested on: SNB-78
SW-620 = tested on: SW-620
TK-10 = tested on: TK-10
U-251 = tested on: U-251
UACC-257 = tested on: UACC-257
UACC-62 = tested on: UACC-62
UO-31 = tested on: UO-31
HOP-62 = tested on: HOP-62
KM-20L2 = tested on: KM-20L2
OVCAR-5 = tested on: OVCAR-5
SF-268 = tested on: SF-268
SK-MEL-2 = tested on: SK-MEL-2
SNB-19 = tested on: SNB-19
BT-549 = tested on: BT-549
DU-145 = tested on: DU-145
Hs-578T = tested on: Hs-578T
MCF7 = tested on: MCF7
MDA-MB-231 = tested on: MDA-MB-231
MDA-MB-435 = tested on: MDA-MB-435
MDA-N = tested on: MDA-N
NCI/ADR-RES = tested on: NCI/ADR-RES
OVCAR-4 = tested on: OVCAR-4
PC-3 = tested on: PC-3
SR = tested on: SR
T47D = tested on: T47D

Compound: Oc1ccncc1-c1cnccc1O
- GI50 (786-0): > 100 µM (inactive)
- GI50 (A498): > 100 µM (inactive)
- GI50 (A549): > 100 µM (inactive)
- GI50 (ACHN): > 100 µM (inactive)
- GI50 (CAKI-1): > 100 µM (inactive)
- GI50 (CCRF-CEM): > 100 µM (inactive)
- GI50 (COLO 205): > 100 µM (inactive)
- GI50 (DLD-1): > 100 µM (inactive)
- GI50 (DMS-114): > 100 µM (inactive)
- GI50 (DMS-273): > 100 µM (inactive)
- GI50 (EKVX): > 100 µM (inactive)
- GI50 (HCC 2998): > 100 µM (inactive)
- GI50 (HCT-116): > 100 µM (inactive)
- GI50 (HCT-15): > 100 µM
- GI50 (HL-60): > 100 µM (inactive)
- GI50 (HOP-18): > 100 µM (inactive)
- GI50 (HOP-92): > 100 µM (inactive)
- GI50 (HT-29): > 100 µM (inactive)
- GI50 (IGROV-1): > 100 µM (inactive)
- GI50 (K562): > 100 µM (inactive)
- GI50 (KM12): > 100 µM (inactive)
- GI50 (LOX IMVI): > 100 µM (inactive)
- GI50 (LXFL 529): > 100 µM (inactive)
- GI50 (M14): > 100 µM (inactive)
- GI50 (M19-MEL): > 100 µM (inactive)
- GI50 (MOLT-4): > 100 µM (inactive)
- GI50 (Malme-3M): > 100 µM (inactive)
- GI50 (NCI-H226): > 100 µM (inactive)
- GI50 (NCI-H23): > 100 µM (inactive)
- GI50 (NCI-H460): 37.5 µM (inactive)
- GI50 (NCI-H522): > 100 µM (inactive)
- GI50 (OVCAR-3): > 100 µM (inactive)
- GI50 (OVCAR-8): > 100 µM (inactive)
- GI50 (RPMI-8226): > 100 µM (inactive)
- GI50 (RXF 393): > 100 µM (inactive)
- GI50 (SF-295): > 100 µM (inactive)
- GI50 (SF-539): > 100 µM (inactive)
- GI50 (SK-MEL-28): > 100 µM (inactive)
- GI50 (SK-MEL-5): > 100 µM (inactive)
- GI50 (SK-OV-3): > 100 µM (inactive)
- GI50 (SN12C): > 100 µM (inactive)
- GI50 (SNB-75): > 100 µM (inactive)
- GI50 (SNB-78): > 100 µM (inactive)
- GI50 (SW-620): > 100 µM (inactive)
- GI50 (TK-10): > 100 µM (inactive)
- GI50 (U-251): > 100 µM (inactive)
- GI50 (UACC-257): > 100 µM (inactive)
- GI50 (UACC-62): > 100 µM (inactive)
- GI50 (UO-31): > 100 µM (inactive)

Compound: O=C(COc1ccc2c(=O)cc(-c3ccccc3)oc2c1)N1CCN(c2ccccc2)CC1
- GI50 (786-0): 41 µM (inactive)
- GI50 (A498): > 10 µM (inactive)
- GI50 (A549): 39.2 µM (inactive)
- GI50 (ACHN): 50.8 µM (inactive)
- GI50 (CCRF-CEM): 24.7 µM (inactive)
- GI50 (COLO 205): 37 µM (inactive)
- GI50 (DMS-114): 24.5 µM (inactive)
- GI50 (EKVX): 28.4 µM (inactive)
- GI50 (HCC 2998): 33.1 µM (inactive)
- GI50 (HCT-116): 71.8 µM (inactive)
- GI50 (HCT-15): 41.2 µM
- GI50 (HL-60): 15.8 µM (inactive)
- GI50 (HOP-18): 41.9 µM (inactive)
- GI50 (HOP-62): 78.7 µM (inactive)
- GI50 (IGROV-1): > 100 µM (inactive)
- GI50 (K562): 18 µM (inactive)
- GI50 (KM-20L2): 37.7 µM (inactive)
- GI50 (KM12): 60.5 µM (inactive)
- GI50 (LOX IMVI): 57.3 µM (inactive)
- GI50 (LXFL 529): 34.1 µM (inactive)
- GI50 (M14): 76.6 µM (inactive)
- GI50 (M19-MEL): 62.2 µM (inactive)
- GI50 (MOLT-4): 11.1 µM (inactive)
- GI50 (Malme-3M): 51.6 µM (inactive)
- GI50 (NCI-H226): 72.4 µM (inactive)
- GI50 (NCI-H23): 46.1 µM (inactive)
- GI50 (NCI-H460): 31.8 µM (inactive)
- GI50 (NCI-H522): 18.8 µM (inactive)
- GI50 (OVCAR-3): 42.9 µM (inactive)
- GI50 (OVCAR-5): 34.6 µM (inactive)
- GI50 (OVCAR-8): 26.4 µM (inactive)
- GI50 (RPMI-8226): 14.2 µM (inactive)
- GI50 (RXF 393): 16.7 µM (inactive)
- GI50 (SF-268): 46.2 µM (inactive)
- GI50 (SF-295): 52.6 µM (inactive)
- GI50 (SF-539): 71.1 µM (inactive)
- GI50 (SK-MEL-28): 49.8 µM (inactive)
- GI50 (SK-MEL-2): 21.1 µM (inactive)
- GI50 (SK-MEL-5): 25.4 µM (inactive)
- GI50 (SK-OV-3): > 100 µM (inactive)
- GI50 (SN12C): 41.4 µM (inactive)
- GI50 (SNB-19): 36.6 µM (inactive)
- GI50 (SNB-75): 27.5 µM (inactive)
- GI50 (SNB-78): > 100 µM (inactive)
- GI50 (SW-620): 83.8 µM (inactive)
- GI50 (TK-10): 44.6 µM (inactive)
- GI50 (U-251): 38.5 µM (inactive)
- GI50 (UACC-257): 43 µM (inactive)
- GI50 (UACC-62): 57.9 µM (inactive)
- GI50 (UO-31): 19.8 µM (inactive)

Compound: CCCCCCCCCCCCCCCCCC(=O)Nc1ccn(C2OC(CO)C(O)C2O)c(=O)n1 (stereo not given)
- GI50 (786-0): > 40.8 µM (inactive)
- GI50 (A498): 15.3 µM (inactive)
- GI50 (A549): 2.99 µM (inactive)
- GI50 (ACHN): 4.74 µM (inactive)
- GI50 (BT-549): > 54.2 µM (inactive)
- GI50 (CAKI-1): 10.5 µM (inactive)
- GI50 (CCRF-CEM): 0.097 µM (active)
- GI50 (COLO 205): 61.9 µM (inactive)
- GI50 (DLD-1): > 100 µM (inactive)
- GI50 (DMS-273): 14.3 µM (inactive)
- GI50 (DU-145): 10.7 µM (inactive)
- GI50 (EKVX): > 100 µM (inactive)
- GI50 (HCC 2998): 8.36 µM (inactive)
- GI50 (HCT-116): 3.32 µM (inactive)
- GI50 (HCT-15): 33 µM
- GI50 (HL-60): 3.43 µM (inactive)
- GI50 (HOP-18): > 100 µM (inactive)
- GI50 (HOP-62): 2.8 µM (inactive)
- GI50 (HOP-92): 58.1 µM (inactive)
- GI50 (HT-29): 20.1 µM (inactive)
- GI50 (Hs-578T): > 100 µM (inactive)
- GI50 (IGROV-1): 39 µM (inactive)
- GI50 (K562): 7.67 µM (inactive)
- GI50 (KM-20L2): 32.1 µM (inactive)
- GI50 (KM12): > 65.9 µM (inactive)
- GI50 (LOX IMVI): 9.89 µM (inactive)
- GI50 (LXFL 529): > 100 µM (inactive)
- GI50 (M14): 14.2 µM (inactive)
- GI50 (M19-MEL): 5.69 µM (inactive)
- GI50 (MCF7): 2.06 µM (inactive)
- GI50 (MDA-MB-231): > 100 µM (inactive)
- GI50 (MDA-MB-435): 19.3 µM (inactive)
- GI50 (MDA-N): > 100 µM (inactive)
- GI50 (MOLT-4): 0.343 µM (active)
- GI50 (Malme-3M): > 27.9 µM (inactive)
- GI50 (NCI-H226): > 90.2 µM (inactive)
- GI50 (NCI-H23): 4.8 µM (inactive)
- GI50 (NCI-H460): 2.69 µM (inactive)
- GI50 (NCI-H522): 5.04 µM (inactive)
- GI50 (NCI/ADR-RES): 30.5 µM (inactive)
- GI50 (OVCAR-3): 7.93 µM (inactive)
- GI50 (OVCAR-4): > 100 µM (inactive)
- GI50 (OVCAR-5): > 70.5 µM (inactive)
- GI50 (OVCAR-8): 7.48 µM (inactive)
- GI50 (PC-3): 4.92 µM (inactive)
- GI50 (RPMI-8226): 31.6 µM (inactive)
- GI50 (RXF 393): 26.8 µM (inactive)
- GI50 (SF-268): 20.1 µM (inactive)
- GI50 (SF-295): > 85.1 µM (inactive)
- GI50 (SF-539): > 76.6 µM (inactive)
- GI50 (SK-MEL-28): 31.9 µM (inactive)
- GI50 (SK-MEL-2): > 100 µM (inactive)
- GI50 (SK-MEL-5): 47.9 µM (inactive)
- GI50 (SK-OV-3): 35.1 µM (inactive)
- GI50 (SN12C): 26.1 µM (inactive)
- GI50 (SNB-19): 19.4 µM (inactive)
- GI50 (SNB-75): 52.6 µM (inactive)
- GI50 (SNB-78): > 100 µM (inactive)
- GI50 (SR): 2.14 µM (inactive)
- GI50 (SW-620): 57.1 µM (inactive)
- GI50 (T47D): > 100 µM (inactive)
- GI50 (TK-10): > 100 µM (inactive)
- GI50 (U-251): 19.4 µM (inactive)
- GI50 (UACC-257): > 100 µM (inactive)
- GI50 (UACC-62): 40.3 µM (inactive)
- GI50 (UO-31): 5.87 µM (inactive)
